Reference: patent publication US20200282010A1, “IMMUNOGENIC COMPOSITIONS AND USES THEREFOR” (Epiaxis Therapeutics Pty Ltd, priority 2017, published 2020)

Test system: CD8^+ T-cells isolated from melanoma patient's bloods
Assay: Immunofluorescence of IFN-γ and TNF-α in patient CD8+ T-cells
Format: cell-based, human
Conditions: across all samples, particularly the stimulated samples; inhibitor 8 μm; FIG. 3
Procedure: FIG. 3 is a photographic representation depicting a PKC-θ resistance signature in CD8^+ T-cells. A-B) CD8s were isolated from melanoma patient liquid biopsies (CR=complete response, SD=Stable Disease, PD=progression of disease) and were stimulated with PMA/CI and pre-clinically screened with either vehicle control or PKCθi nuclear peptide inhibitor. Samples were fixed and immunofluorescence microscopy was performed on these cells with primary antibodies for ZEB1, PKC-θ, and CD8. Representative images for each dataset are shown. Graph represents the TNFI for PKC-Theta and TNFI for ZEB1 measured using ImageJ to select the nucleus minus background (n=>20 cells/sample). […] Graph represents the TNFI for TNF-α and TNFI for IFN-γ measured using ImageJ to select the nucleus minus background (n=>20 cells/sample). […]
Metastatic melanoma biopsies were pre-enriched using the RosetteSep™ method to isolate CTCs by employing the RosetteSep™ Human CD45 Depletion Kit (15162, Stemcell Technologies) to remove CD45+ cells and red blood cells, using density gradient centrifugation with SepMate™-50 (IVD) density gradient tubes (85450, Stemcell Technologies) and Lymphoprep™ density gradient medium (07861, Stemcell Technologies). […] Digital images were analysed using ImageJ software (ImageJ, NIH, Bethesda, Md., USA) to determine TNFI, TCFI or TFI. […]

Sequence: RKEIDPPFRPKVK [PKCθi]
- expression of IFN-γ: significant increase
- expression of TNF-α: significant increase
